Read-outs that look alike come from different tables or passages of the source.
Key:
[1] = tested on: promoter of yeast gene YOR382w; type: cell-based, Saccharomyces cerevisiae W303
Excerpt: (§1) The inventors of the present application understood that the induction of certain yeast genes by toxic substances is caused by the activation of the promoters of the genes by the toxic substances. Thus, the inventors prepared a vector that comprised a polynucleotide sequence comprising the promoter of the yeast gene, which sequence is operably linked to a polynucleotide encoding a marker protein; and transformed yeast cells with the vector. […] The working examples hereinafter illustrate the preparation of such vectors, transformation of yeast cells by use of said vectors, and the detection of toxic substances by use of the transformed cells.
(§2) Promoter assay is a method for determining variations of the level of intracellular genes without destroying cells on the basis of the level of expressed marker genes instead of the expressed mRNA. The gene selected to detect a chemical substance is expressed in the absence of chemical substances, and thus a marker protein also occurs in the absence of chemical substances. In the method according to the present invention, the behavior of yeast genes on the addition of test materials is determined on the basis of the level of expressed marker protein so that the presence or the absence, and the kind of toxic chemical substances are predicted. Thus, it is desired that the production of marker proteins is lower in the absence of chemical substances, and the production of marker proteins is higher in the presence of chemical substances.
(§3) Type YEp shuttle vector pYES2 (pYES2, Cat no: V825-20, Invirtogen Corporation, USA), which can be replicated both in E. coli. and yeast was used as vector (R. W. Old, S. B. Primrose Principles of Gene Manipulation 5th Ed., BAIFUKAN CO., LTD, pp138-165, pp.234-263, 2000). The portion of vector pQBI 63 (Cat no.54-0082, Wako Pure Chemical Industries, Ltd.) corresponding to a marker protein GFP was used as the polynucleotide encoding GFP (SEQ ID No: 6). First, the GFP polynucleotide was inserted into the multiple cloning sites of pYES2 to give a vector. Thereafter, the GAL1 promoter of pYES2 was replaced with the polynucleotide comprising the promoter sequence of the intended yeast gene YOR382w (SEQ ID No: 3) to give an intended plasmid vector. Suitable restriction enzymes were selected, and the insertion of the polynucleotide comprising GFP and the promoter sequence was conducted.
(§4) Next, the yeast Saccharomyces cerevisiae W303 was transformed with the resultant plasmid vector according to the following procedures: • 1) Incubating the yeast Saccharomyces cerevisiae W303 in 200 ml of SD medium under shaking until OD 660 reaches 0.5; • 2) Suspending the collected cells in 5 ml of TE-buffer; • 3) Adding 250 μL of 2.5M lithium acetate; • 4) Dispending each 300 μl, adding 10 μl of above plasmid vector thereto, then incubating the suspensions at 30° C. for 30 minutes; • 5) Adding 700 μl of 50% PEG4000, and incubating the mixture under shaking at 30° C. for 60 minutes; • 6) Giving heat shock (42° C., 5 minutes), and then immediately cooling the mixture; • 7) Washing the mixture twice with 1M sorbitol; and • 8) Seeding it on agar plates made of minimum essential medium.
(§5) The cells of SC-YOR382W-pQBI as prepared in Example 4 were contacted to one of the following compounds. The yeast cells SC-YOR382W-pQBI were incubated at 25° C. in SD medium (Yeast nitrogen base without amino acids (Difco 0919-15)+glucose+amino acids (adenine, histidine, tryptophan)). One of toxic chemical substances as shown below was added to the cells at logarithmic growth phase, and then the cells were further incubated for two hours.

[2] = tested on: promoter of yeast gene YKL071w; type: cell-based, Saccharomyces cerevisiae W303
Excerpt: as §1, §2
as §3, with “YKL071w” for “YOR382w”, “1)” for “3)”
as §4
as §5, with “SC-YKL071W-pQBI” for “SC-YOR382W-pQBI”, “2” for “4”

[3] = SC-YOR382W-pQBI cells, summary of Table 12
[4] = cells SC-YOR382W-pQBI, 2 hours incubation with the substance at the concentration printed in its row (column Concentrations), GFP fluorescence vs control without chemical
[5] = SC-YKL071W-pQBI cells, 25° C., two hours, each substance at the concentration given

Compound	Fluorescence [1, 4]	Fluorescens [2, 5]	further results
[Cl][Ni][Cl] [nickel (II) chloride]	–	–	Fluorescence [1]: ++ (key: −: the number of the cells having a higher fluorescence than the control was under 1%; +: between 1% and 2%; ++: 2% or more); expression of GFP [1]: induced the expression of GFP; Fluorescens [2]: − (key: −: the number of the cells having a higher fluorescence than the control was under 1%; +: between 1% and 2%; ++: 2% or more)
manganese ethylenebis(dithiocarbamate) [(8)]	++ (2% or more)	− (the number of the cells having a higher fluorescence than the control was under 1%)	expression of GFP [1, 3]: induced the expression of GFP
O=S(=O)([O-])[O-].[Cu+2] [copper sulfate (II)]	–	–	Fluorescence [1]: − (key: −: the number of the cells having a higher fluorescence than the control was under 1%; +: between 1% and 2%; ++: 2% or more); Fluorescens [2]: − (key: −: the number of the cells having a higher fluorescence than the control was under 1%; +: between 1% and 2%; ++: 2% or more)
CN(C)C(=S)SSC(=S)N(C)C [(10), Tetramethylthiuram disulfide]	–	–	expression of GFP ([2]; SC-YKL071W-pQBI cells, summary of Table 10): induced the expression of GFP
Na2As [(1)]	− (the number of the cells having a higher fluorescence than the control was under 1%)	− (the number of the cells having a higher fluorescence than the control was under 1%)	–
γ-hexachlorocyclohexane [(7)]	− (the number of the cells having a higher fluorescence than the control was under 1%)	− (the number of the cells having a higher fluorescence than the control was under 1%)	–
[Cl][Sn]([c]1ccccc1)([c]1ccccc1)[c]1ccccc1 [triphenyltin chloride]	− (the number of the cells having a higher fluorescence than the control was under 1%)	− (the number of the cells having a higher fluorescence than the control was under 1%)	–
CdCl2 [(2)]	− (the number of the cells having a higher fluorescence than the control was under 1%)	− (the number of the cells having a higher fluorescence than the control was under 1%)	–
Oc1cc(Cl)c(Cl)cc1Cl [(6), 2,4,5-trichlorophenol]	–	–	expression of GFP [1]: induced the expression of GFP
HgCl2 [(3)]	− (the number of the cells having a higher fluorescence than the control was under 1%)	− (the number of the cells having a higher fluorescence than the control was under 1%)	–
O=[N+]([O-])c1cc[n+]([O-])c2ccccc12 [(5), 4-nitroquinolin-N-oxide]	–	–	expression of GFP [1, 3]: induced the expression of GFP
CCCCC(CC)COC(=O)c1ccccc1C(=O)OCC(CC)CCCC (stereo not shown)	− (the number of the cells having a higher fluorescence than the control was under 1%)	− (the number of the cells having a higher fluorescence than the control was under 1%)	–
[CH3][Hg][Cl] [methylmercury chloride]	− (the number of the cells having a higher fluorescence than the control was under 1%)	− (the number of the cells having a higher fluorescence than the control was under 1%)	–
CCN(CC)C(=O)SCc1ccc(Cl)cc1 [S-4-Chlorobenzyl-N,N-diethylthiocarbamate]	− (the number of the cells having a higher fluorescence than the control was under 1%)	− (the number of the cells having a higher fluorescence than the control was under 1%)	–
CCOC(=O)CC(SP(=S)(OC)OC)C(=O)OCC (stereo not shown) [malathon]	++ (2% or more)	− (the number of the cells having a higher fluorescence than the control was under 1%)	expression of GFP [1, 3]: induced the expression of GFP
[K+].[K+].[O]=[Cr](=[O])([O-])[O][Cr](=[O])(=[O])[O-] [potassium bichromate]	++ (2% or more)	− (the number of the cells having a higher fluorescence than the control was under 1%)	expression of GFP [1, 3]: induced the expression of GFP
C[S+](C)[O-] [(15), dimethylsulfoxide]	–	–	expression of GFP [1, 3]: induced the expression of GFP
CC(=O)O.Cc1nc(N)cc2[nH]c3ccccc3c12 [Trp-P-2 (acetate)]	–	–	Fluorescence [1]: ++ (key: −: the number of the cells having a higher fluorescence than the control was under 1%; +: between 1% and 2%; ++: 2% or more); expression of GFP [1]: induced the expression of GFP; Fluorescens [2]: − (key: −: the number of the cells having a higher fluorescence than the control was under 1%; +: between 1% and 2%; ++: 2% or more)
